This is an account of results in patent US9296818B2, “Cleavage inhibitors of transforming growth factor beta type I receptor and uses thereof in cancer therapy” (priority 2011, dated 2016).

Entries after “also recorded” stand apart in the source; their conditions may differ.

One assay has as its system PC-3U cells. The assay can be described thus: CytoSelect cell invasion assay, PC-3U. It counts as cell-based, human. As to the method:
(§1) Invasion assays were performed using the CytoSelect Cell Invasion Assay (Cell Biolabs, Inc., San Diego, Calif.). Briefly, the basement membrane layer of the cell culture inserts were rehydrated in 300 μl serum-free RPMI-1640 and 2×10^6 cells were seeded into the upper sections of the chambers in serum-free RPMI-1640 with or without TGFβ. The lower wells of the invasion plates were filled with 500 μl RPMI supplemented with 10% FBS. Non-invasive cells were removed from the upper chamber and invasive cells were stained with crystal violet cell stain solution. Invasive cells were photographed with a Leica DMR light microscope. Colorimetric quantification was performed by transferring inserts into 200 μl of extraction solution for 10 min and then, transferring to a 96-well microtiter plate. The OD at 560 nm was determined with a plate reader (Supplementary Information FIG. S5a).
The cancer cell invasion assay described in Example 1 above was performed to examine the ability of γ-secretase inhibitors in suppressing cancel cell invasion. Prostate cancers cells PC-3U, human lung carcinoma cells A549, and human breast carcinoma cells MDA-MB-231 were cultured following routine procedures, treated with TGFβ in the presence of absence of L-685,458, a γ-secretase inhibitor. Cells were visualized by staining with a crystal violet cell staining solution. […]

Another assay concerns A549 cells. The assay can be described thus: CytoSelect cell invasion assay, A549. It is filed as cell-based, human. As to the method: as §1
(§2) The cancer cell invasion assay described in Example 1 above was performed to examine the ability of γ-secretase inhibitors in suppressing cancel cell invasion. Prostate cancers cells PC-3U, human lung carcinoma cells A549, and human breast carcinoma cells MDA-MB-231 were cultured following routine procedures, treated with TGFβ in the presence of absence of L-685,458, a γ-secretase inhibitor. Cells were visualized by staining with a crystal violet cell staining solution.

The next assay relates to MDA-MB-231 cells. In words: CytoSelect cell invasion assay, MDA-MB-231. It is filed as cell-based, human. As to the method:
as §1, §2

Another assay has as its system TβRI ICD. In words: Nuclear accumulation of TβRI ICD (immunofluorescence, nuclear fractionation). It counts as cell-based, human. As to the method:
Before TGF-β1 stimulation, the cells were starved for 12-18 h in medium supplemented with 1% FBS. In all assays, the cells were stimulated with 10 ng/ml TGFβ1 (R&D System, UK).
(§3) Protein-G Sepharose was obtained from GE Healthcare.; LumiLight Western blotting substrate and Pefabloc were from Roche, PageRuler prestained protein ladder was from Fermentas; and TAPI-2 was from BIOMOL Research Laboratories Inc. TAPI-2 was used at concentrations of 10-20 μM. The p38α/β inhibitor (SB203580) was purchased from Calbiochem (it was used at a concentration of 10 μM). PKCζ pseudosubstrate was from TOCRIS Bioscience and used at concentrations of 10-50 μM. The PKCζ activator, phorbol 12-myristate 13-acetate (PMA, referred to as TPA in our paper), and a TβRI inhibitor (SB505124) were purchased from Sigma. The SB505124 inhibitor was used at a concentration of 10 μM and the TPA at a concentration of 100 nM. The general PKCζ inhibitor, GF109203X, was purchased from Sigma. All inhibitors were added to cells 1 h before TGFβ stimulation.
Cells were starved for 12-18 h and then stimulated with TGFβ for the indicated time periods, washed twice in ice-cold PBS, and lysed in ice-cold lysis buffer (150 mM NaCl, 50 mM Tris pH 8.0, 0.5% (v/v) deoxycholate, 1% (v/v) NP40, 10% (v/v) glycerol, 1 mM aprotinin, 1 mM Pefabloc and 2 mM sodium orthovanadate). After centrifugation, supernatants were collected and protein concentrations were determined using the bicinchoninic acid (BCA) protein measurement kit (Nordic Biolabs). Equal volumes were subjected to immunoprecipitation. Equal amounts of protein from total cell lysates and immunoprecipitations were subjected to electrophoresis on 6%, 10%, 12%, or 4-12% gradient SDS-polyacrylamide gels (SDS-PAGE), blotted on to polyvinylidine difluoride membranes, and subjected to immunoblotting, as previously described.^23 The […] cell lysate from Santa Cruz was used as a positive control for TβRI. […]

For the next assay, the target named is T1, PKCζ (Homo sapiens, UniProt Q05513).
T1 construct: Cell lysates from PC-3U cells treated with TGFβ or TPA were subjected to immunoblotting with an antiserum against pPKCζ; endogenous in cells; host or cells: PC-3U (human prostate cancer cell line)
T1 sequence (Q05513 1-592): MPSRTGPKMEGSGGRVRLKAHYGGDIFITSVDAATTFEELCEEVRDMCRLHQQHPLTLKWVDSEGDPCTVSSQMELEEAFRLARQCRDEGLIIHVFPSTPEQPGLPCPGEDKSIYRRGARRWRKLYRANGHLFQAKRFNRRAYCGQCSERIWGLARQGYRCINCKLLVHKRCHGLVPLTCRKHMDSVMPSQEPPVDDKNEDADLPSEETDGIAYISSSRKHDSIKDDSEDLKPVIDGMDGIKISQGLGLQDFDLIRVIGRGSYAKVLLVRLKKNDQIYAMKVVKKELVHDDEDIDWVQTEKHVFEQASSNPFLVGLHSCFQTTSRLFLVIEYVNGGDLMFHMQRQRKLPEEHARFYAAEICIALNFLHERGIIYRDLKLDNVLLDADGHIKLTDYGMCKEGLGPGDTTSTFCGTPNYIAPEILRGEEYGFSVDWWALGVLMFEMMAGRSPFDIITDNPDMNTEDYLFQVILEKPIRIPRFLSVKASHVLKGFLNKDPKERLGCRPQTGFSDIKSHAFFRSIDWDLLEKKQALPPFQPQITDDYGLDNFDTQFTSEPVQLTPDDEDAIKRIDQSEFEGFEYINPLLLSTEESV
In words: Activation of PKCζ (immunoblotting for p-PKCζ). It is filed as cell-based. To be noted: PC-3U cells. As for the experimental part: Cells were starved for 12-18 h and then stimulated with TGFβ for the indicated time periods, washed twice in ice-cold PBS, and lysed in ice-cold lysis buffer (150 mM NaCl, 50 mM Tris pH 8.0, 0.5% (v/v) deoxycholate, 1% (v/v) NP40, 10% (v/v) glycerol, 1 mM aprotinin, 1 mM Pefabloc and 2 mM sodium orthovanadate). After centrifugation, supernatants were collected and protein concentrations were determined using the bicinchoninic acid (BCA) protein measurement kit (Nordic Biolabs). Equal volumes were subjected to immunoprecipitation. Equal amounts of protein from total cell lysates and immunoprecipitations were subjected to electrophoresis on 6%, 10%, 12%, or 4-12% gradient SDS-polyacrylamide gels (SDS-PAGE), blotted on to polyvinylidine difluoride membranes, and subjected to immunoblotting, as previously described.^23 The […] cell lysate from Santa Cruz was used as a positive control for TβRI. The ubiquitination assays, immunofluorescence assays, and transient transfections were performed as previously described.^5,23,24 Photomicrographs were obtained with a Zeiss 510 Meta (Carl Zeiss Microimaging, Inc.) equipped with a digital camera (RET-EXi-F-M-12-C) from Q-imaging.
(A western blot detects proteins with antibodies after separation by electrophoresis.)

Another assay deals with TβRI. In words: Formation of TβRI ICD (immunoblotting of cell lysates). It counts as cell-based, human. To be noted: PC-3U cells. As for the experimental part:
as §3
Cells were starved for 12-18 h and then stimulated with TGFβ for the indicated time periods, washed twice in ice-cold PBS, and lysed in ice-cold lysis buffer (150 mM NaCl, 50 mM Tris pH 8.0, 0.5% (v/v) deoxycholate, 1% (v/v) NP40, 10% (v/v) glycerol, 1 mM aprotinin, 1 mM Pefabloc and 2 mM sodium orthovanadate). After centrifugation, supernatants were collected and protein concentrations were determined using the bicinchoninic acid (BCA) protein measurement kit (Nordic Biolabs). Equal volumes were subjected to immunoprecipitation. […]

`CC(C)C[C@H](NC(=O)[C@H](Cc1ccccc1)C[C@@H](O)[C@H](Cc1ccccc1)NC(=O)OC(C)(C)C)C(=O)N[C@@H](Cc1ccccc1)C(N)=O` [L-685,458]: the “TGFβ-induced cancer cell invasion” value in the assay with PC-3U cells, in the assay on A549 cells and in the assay with MDA-MB-231 cells was “significantly suppressed” in each case.
As to phorbol 12-myristate 13-acetate [TPA], in the assay with TβRI ICD (HA-caTβRI-expressing PC-3U cells treated with TPA), the “ICD in the nuclear fraction” value is reported as “accumulated in the nuclear fraction”. Further, in the assay on TβRI ICD (PC-3U cells treated with TPA alone, 6 h), the “nuclear accumulation of endogenous TβRI ICD, immunofluorescence” value is on record as “led to nuclear accumulation”. Further, the “activation of PKCζ (p-PKCζ)” value at PKCζ is listed as “activated”.
`CC(C)C[C@H](CC(=O)NO)C(=O)N[C@H](C(=O)N[C@@H](C)C(=O)NCCN)C(C)(C)C` [TAPI-2]: the “nuclear translocation/accumulation of TβRI ICD in response to TGFβ stimulation” value with TβRI ICD (PC-3U cells, TGFβ, inhibitor added 1 h before TGFβ, V22 antibody) was “reduction; also recorded: partly prevented”.
Take `Cc1cccc(-c2[nH]c(C(C)(C)C)nc2-c2ccc3c(c2)OCO3)n1` [SB505124]: in the assay on TβRI, the “formation of the TβRI ICD” value is “no major effect”.
